From patent US11208386B2, “Inhibitors of protein arginine deiminases (PADs) and methods of preparation and use thereof” (University of Massachusetts, priority 2016, dated 2021)

How the values were obtained:
Type in all cases: biochemical
PAD2 = biological target: T1, PAD2 (Homo sapiens, UniProt Q9Y2J8); assay: Inactivation kinetics, PAD2; conditions: for kinact/KI: a: single kobs determined, b: from a linear fit, other footnotes: from kinact and KI; for Fold PAD2 Selectivity: kinact/KI relative to least inhibited isozyme (1.0)
T1 construct: made in house
T1 sequence (Q9Y2J8 whole entry): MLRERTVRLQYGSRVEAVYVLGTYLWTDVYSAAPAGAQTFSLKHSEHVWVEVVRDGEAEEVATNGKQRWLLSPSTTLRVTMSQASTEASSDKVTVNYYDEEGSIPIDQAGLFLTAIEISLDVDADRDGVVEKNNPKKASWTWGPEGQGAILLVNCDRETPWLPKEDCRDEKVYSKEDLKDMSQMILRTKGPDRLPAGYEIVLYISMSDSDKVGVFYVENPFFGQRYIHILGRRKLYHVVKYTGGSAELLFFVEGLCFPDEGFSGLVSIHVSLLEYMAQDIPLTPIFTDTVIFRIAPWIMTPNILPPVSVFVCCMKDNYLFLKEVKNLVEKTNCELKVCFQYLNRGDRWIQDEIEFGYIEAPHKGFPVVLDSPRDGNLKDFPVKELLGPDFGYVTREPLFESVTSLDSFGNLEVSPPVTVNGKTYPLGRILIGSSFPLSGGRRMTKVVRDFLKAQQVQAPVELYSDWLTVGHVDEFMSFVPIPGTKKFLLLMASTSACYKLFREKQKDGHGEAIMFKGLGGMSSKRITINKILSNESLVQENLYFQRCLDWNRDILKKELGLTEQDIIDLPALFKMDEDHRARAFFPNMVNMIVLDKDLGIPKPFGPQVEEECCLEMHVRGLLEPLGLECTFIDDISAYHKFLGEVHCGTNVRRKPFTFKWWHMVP
Procedure: (§1) Inactivation kinetic parameters were determined by incubating PAD1, 2, or 4 (2.0 μM) or PAD3 (5.0 μM) in a pre-warmed (10 min; 37° C.) inactivation mixture (50 mM HEPES, 10 mM CaCl2, and 2 mM DTT, pH 7.6, with a final volume of 60 μL) containing various concentrations of inhibitor. Aliquots were removed at various time points and added to a pre-warmed (10 min, 37° C.) reaction mixture (50 mM HEPES, 50 mM NaCl, 10 mM CaC2, 2 mM DTT, and 10 mM BAEE or 10 mM BAA in the case of PAD3; pH 7.6). After 15 min, reactions were quenched in liquid nitrogen and citrulline production quantified using the COLDER assay. […] In Vitro Labeling of PADs with “Clickable” Probes BB-F-Yne (5u), BB-Cl-Yne (5v) and BIFYne (5w)

PAD4 = biological target: T2, PAD4 (Homo sapiens, UniProt Q9UM07); assay: Inactivation kinetics, PAD4; conditions: for kinact/KI: a: single kobs determined, b: from a linear fit; for Fold PAD4 Selectivity: kinact/KI relative to least inhibited isozyme (1.0)
T2 construct: made in house
T2 sequence (Q9UM07 whole entry): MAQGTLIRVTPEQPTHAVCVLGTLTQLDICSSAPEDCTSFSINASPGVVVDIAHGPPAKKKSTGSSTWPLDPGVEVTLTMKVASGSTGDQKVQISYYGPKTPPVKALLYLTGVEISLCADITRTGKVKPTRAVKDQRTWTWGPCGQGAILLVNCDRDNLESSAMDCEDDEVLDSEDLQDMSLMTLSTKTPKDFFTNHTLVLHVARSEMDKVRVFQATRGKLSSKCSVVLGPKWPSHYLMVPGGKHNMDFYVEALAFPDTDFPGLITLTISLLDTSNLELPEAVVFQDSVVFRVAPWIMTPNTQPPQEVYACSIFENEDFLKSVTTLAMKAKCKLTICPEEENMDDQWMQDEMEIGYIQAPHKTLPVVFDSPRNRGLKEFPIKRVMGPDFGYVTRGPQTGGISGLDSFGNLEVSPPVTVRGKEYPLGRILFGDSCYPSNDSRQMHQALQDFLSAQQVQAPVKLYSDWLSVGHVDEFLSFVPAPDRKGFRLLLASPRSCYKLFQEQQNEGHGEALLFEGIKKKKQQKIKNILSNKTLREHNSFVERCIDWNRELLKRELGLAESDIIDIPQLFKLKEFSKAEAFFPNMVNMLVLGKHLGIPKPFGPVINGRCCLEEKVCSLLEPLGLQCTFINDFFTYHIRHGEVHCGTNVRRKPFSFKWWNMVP
Procedure: as §1

PAD1 = biological target: T3, PAD1 (Homo sapiens, UniProt Q9ULC6); assay: Inactivation kinetics, PAD1; conditions: for kinact/KI: a: single kobs determined, b: from a linear fit; for Fold PAD1 Selectivity: kinact/KI relative to least inhibited isozyme (1.0)
T3 construct: made in house
T3 sequence (Q9ULC6 1-663): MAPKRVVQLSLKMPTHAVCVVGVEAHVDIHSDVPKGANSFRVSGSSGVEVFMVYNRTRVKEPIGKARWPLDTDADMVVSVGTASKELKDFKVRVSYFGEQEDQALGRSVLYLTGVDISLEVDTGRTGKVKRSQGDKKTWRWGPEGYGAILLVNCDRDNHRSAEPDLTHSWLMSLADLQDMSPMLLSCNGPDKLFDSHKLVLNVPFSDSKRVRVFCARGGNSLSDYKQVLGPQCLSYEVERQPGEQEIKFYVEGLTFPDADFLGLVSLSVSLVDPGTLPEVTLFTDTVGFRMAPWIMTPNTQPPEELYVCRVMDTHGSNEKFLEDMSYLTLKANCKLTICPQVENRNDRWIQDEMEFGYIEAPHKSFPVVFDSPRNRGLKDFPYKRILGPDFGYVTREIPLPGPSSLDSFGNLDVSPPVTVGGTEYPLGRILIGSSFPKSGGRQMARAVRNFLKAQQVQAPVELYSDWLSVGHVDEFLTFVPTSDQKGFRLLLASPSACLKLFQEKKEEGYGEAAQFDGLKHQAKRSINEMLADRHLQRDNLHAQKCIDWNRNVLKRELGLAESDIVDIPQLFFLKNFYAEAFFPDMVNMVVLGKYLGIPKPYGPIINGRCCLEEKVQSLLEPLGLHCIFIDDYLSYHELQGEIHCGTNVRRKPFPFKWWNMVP
Procedure: as §1

PAD3 = biological target: T4, PAD3 (Homo sapiens, UniProt Q9ULW8); assay: Inactivation kinetics, PAD3; conditions: for kinact/KI: a: single kobs determined; for Fold PAD3 Selectivity: kinact/KI relative to least inhibited isozyme (1.0)
T4 construct: made in house
T4 sequence (Q9ULW8 1-664): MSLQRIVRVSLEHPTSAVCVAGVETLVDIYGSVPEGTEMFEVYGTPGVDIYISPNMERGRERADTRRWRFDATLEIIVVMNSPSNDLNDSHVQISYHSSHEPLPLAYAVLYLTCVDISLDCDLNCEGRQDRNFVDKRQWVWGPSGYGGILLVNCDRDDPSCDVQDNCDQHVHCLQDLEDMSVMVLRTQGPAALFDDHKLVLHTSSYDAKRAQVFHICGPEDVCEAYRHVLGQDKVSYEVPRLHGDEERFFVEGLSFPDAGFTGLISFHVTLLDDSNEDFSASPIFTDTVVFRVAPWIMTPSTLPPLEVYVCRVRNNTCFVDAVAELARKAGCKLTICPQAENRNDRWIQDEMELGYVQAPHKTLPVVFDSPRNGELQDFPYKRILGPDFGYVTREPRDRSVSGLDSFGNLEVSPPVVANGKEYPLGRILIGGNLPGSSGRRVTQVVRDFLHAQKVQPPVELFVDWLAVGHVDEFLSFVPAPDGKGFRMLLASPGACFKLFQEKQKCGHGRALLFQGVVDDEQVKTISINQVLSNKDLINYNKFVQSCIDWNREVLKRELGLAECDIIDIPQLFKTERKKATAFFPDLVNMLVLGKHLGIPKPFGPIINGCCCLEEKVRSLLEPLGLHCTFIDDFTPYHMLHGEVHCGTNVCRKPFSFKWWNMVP
Procedure: as §1

| SMILES | Ki (PAD2; PAD2, table footnote) [µM] | kinact (PAD2; PAD2, table footnote) [s⁻¹] | kinact/KI (PAD2) [M⁻¹ s⁻¹] | Fold PAD2 Selectivity (PAD2) [fold] | kinact/KI (PAD4) [M⁻¹ s⁻¹] | Fold PAD4 Selectivity (PAD4) [fold] | kinact/KI (PAD1) [M⁻¹ s⁻¹] | Fold PAD1 Selectivity (PAD1) [fold] | kinact/KI (PAD3) [M⁻¹ s⁻¹] | Fold PAD3 Selectivity (PAD3) [fold] |
| --- | --- | --- | --- | --- | --- | --- | --- | --- | --- | --- |
| COc1cccc2c1nc([C@H](CCCNC(=N)CF)NC(=O)c1cccc3c1C(=O)N(C)C3)n2C [8a′] | 12.8 | 0.0455 | 3540 | 106 | 38.3 | 1.1 | 996 | 30 | 33.5 | 1.0 |
| COc1cccc2c1nc([C@H](CCCNC(=N)CCl)NC(=O)c1cccc3c1C(=O)N(C)C3)n2C [8b′] | – | – | 1160 | 11 | 106 | 1.0 | 719 | 6.8 | 228 | 2.2 |
| N=C(CF)NCCC[C@H](NC(=O)c1ccccc1)c1nc2ccccc2[nH]1 [Compound 5a, N1-benzoyl-N5-(2-fluoro-1-iminoethyl)-1-(1H-benzo[d]imidazol-2-yl)-L-ornithine] | – | – | 7.92 | 1.0 | 142 | 18 | 75 | 9.5 | 15 | 1.9 |
| N=C(CCl)NCCC[C@H](NC(=O)c1ccccc1)c1nc2ccccc2[nH]1 [Compound 5b, N1-benzoyl-N5-(2-chloro-1-iminoethyl)-1-(1H-benzo[d]imidazol-2-yl)-L-ornithine] | – | – | 8.33 | 1.0 | 254 | 31 | 132 | 16 | 163 | 20 |
| N=C(CF)NCCC[C@H](NC(=O)c1ccc2ccccc2c1)c1nc2ccccc2[nH]1 [Compound 5c] | – | – | 13.1 | 1.0 | 108 | 8.3 | 25 | 1.9 | 46.7 | 3.6 |
| N=C(CCl)NCCC[C@H](NC(=O)c1ccc2ccccc2c1)c1nc2ccccc2[nH]1 [Compound 5d] | – | – | 71.2 | 1.5 | 167 | 3.6 | 46.7 | 1.0 | 165 | 3.5 |
| N=C(CF)NCCC[C@H](NC(=O)c1ccc(-c2ccccc2)cc1)c1nc2ccccc2[nH]1 [Compound 5e, N1-[1,4′-Phenyl]benzol-N5-(2-fluoro-1-iminoethyl)-1-(1H-benzo[d]imidazol-2-yl)-L-ornithine] | – | – | 20 | 1.3 | 62.5 | 4.2 | 15 | 1.0 | 56.7 | 3.8 |
| Cn1c([C@H](CCCNC(=N)CF)NC(=O)c2ccc(-c3ccccc3)cc2)nc2ccccc21 [Compound 5g, N1-[1,4′-Phenyl]benzoyl-N5-(2-fluoro-1-iminoethyl)-1-(1-methyl-benzo[d]imidazol-2-yl)-L-ornithine] | – | – | 13.7 | 1.8 | 7.5 | 1.0 | 21.3 | 2.8 | 26.7 | 3.6 |
| Cn1c([C@H](CCCNC(=N)CCl)NC(=O)c2ccc(-c3ccccc3)cc2)nc2ccccc21 [Compound 5h, N1-[1,4′-Phenyl]benzol-N5-(2-chloro-1-iminoethyl)-1-(1-methyl-benzo[d]imidazol-2-yl)-L-ornithine] | – | – | 40.5 | 1.0 | 51.8 | 1.3 | 112 | 2.8 | 100 | 2.5 |

Continued, values first:

| Ki (PAD2; PAD2, table footnote) [µM] | kinact (PAD2; PAD2, table footnote) [s⁻¹] | kinact/KI (PAD2) [M⁻¹ s⁻¹] | Fold PAD2 Selectivity (PAD2) [fold] | kinact/KI (PAD4) [M⁻¹ s⁻¹] | Fold PAD4 Selectivity (PAD4) [fold] | kinact/KI (PAD1) [M⁻¹ s⁻¹] | Fold PAD1 Selectivity (PAD1) [fold] | kinact/KI (PAD3) [M⁻¹ s⁻¹] | Fold PAD3 Selectivity (PAD3) [fold] | SMILES |
| --- | --- | --- | --- | --- | --- | --- | --- | --- | --- | --- |
| – | – | 19.3 | 39 | 0.5 | 1.0 | 12.7 | 25 | 30 | 60 | CCn1c([C@H](CCCNC(=N)CF)NC(=O)c2ccc(-c3ccccc3)cc2)nc2ccccc21 [Compound 5i, N1-[1,4′-Phenyl]benzoyl-N5-(2-fluoro-1-iminoethyl)-1-(1-ethyl-benzo[d]imidazol-2-yl)-L-omithine] |
| – | – | 80.8 | 1.2 | 69.2 | 1.0 | 84.3 | 1.2 | 284 | 4.1 | CCn1c([C@H](CCCNC(=N)CCl)NC(=O)c2ccc(-c3ccccc3)cc2)nc2ccccc21 [Compound 5j, N1-[1,4′-Phenyl]benzoyl-N5-(2-chloro-1-iminoethyl)-1-(1-ethyl-benzo[d]imidazol-2-yl)-L-ornithine] |
| – | – | 11.3 | 34 | 0.333 | 1.0 | 0.333 | 1.0 | 28.3 | 85 | CC(C)n1c([C@H](CCCNC(=N)CF)NC(=O)c2ccc(-c3ccccc3)cc2)nc2ccccc21 [Compound 5k, N1-[1,4′-Phenyl]benzoyl-N5-(2-fluoro-1-iminoethyl)-1-(1-isopropyl-benzo[d]imidazol-2-yl)-L-ornithine] |
| – | – | 24.8 | 1.6 | 15.8 | 1.0 | 20.3 | 1.3 | 192 | 12 | CC(C)n1c([C@H](CCCNC(=N)CCl)NC(=O)c2ccc(-c3ccccc3)cc2)nc2ccccc21 [Compound 5l, N1-[1,4′-Phenyl]benzoyl-N5-(2-chloro-1-iminoethyl)-1-(1-isopropyl-benzo[d]imidazol-2-yl)-L-ornithine] |
| – | – | 132 | 10 | 13.2 | 1.0 | 31.2 | 2.4 | 48.3 | 3.7 | COc1cccc2c1nc([C@H](CCCNC(=N)CF)NC(=O)c1ccc(-c3ccccc3)cc1)n2C [Compound 5m, N1-[1,4′-Phenyl]benzoyl-N5-(2-fluoro-1-iminoethyl)-1-(4-methoxy-1-methyl-benzo[d]imidazol-2-yl)-L-omithine] |
| – | – | 463 | 5.1 | 132 | 1.4 | 580 | 6.3 | 91.7 | 1.0 | COc1cccc2c1nc([C@H](CCCNC(=N)CCl)NC(=O)c1ccc(-c3ccccc3)cc1)n2C [Compound 5n, N1-[1,4′-Phenyl]benzoyl-N5-(2-chloro-1-iminoethyl)-1-(4-methoxy-1-methyl-benzo[d]imidazol-2-yl)-L-ornithine] |
